From patent publication US11371055B2, “Herbicide resistance genes” (CORTEVA AGRISCIENCE LLC, priority 2005, dated 2022)

Test system: AAD-12 (v1) T1 tobacco plants
Experiment: Cross tolerance of T1 tobacco to phenoxy and pyridyloxy auxin herbicides
Format: in vivo, Nicotiana tabacum
Source text: Two to four T0 individuals surviving high rates of 2,4-D and fluroxypyr were saved from each event and allowed to self fertilize in the greenhouse to give rise to T1 seed. The T1 seed was stratified, and sown into selection trays much like that of Arabidopsis (Example 7.4), followed by selective removal of untransformed nulls in this segregating population with 560 g ai/ha glufosinate (PAT gene selection). Survivors were transferred to individual 3-inch pots in the greenhouse. These lines provided high levels of resistance to 2,4-D in the T0 generation. Improved consistency of response is anticipated in T1 plants not having come directly from tissue culture. These plants were compared against wildtype KY160 tobacco. All plants were sprayed with a track sprayer set at 187 L/ha. The plants were sprayed from a range of 140-2240 g ac/ha 2,4-D dimethylamine salt (DMA), 70-1120 g ace/ha triclopyr or 35-560 g ae/ha fluroxypyr. All applications were formulated in water. Each treatment was replicated 2-4 times. Plants were evaluated at 3 and 14 days after treatment. Plants were assigned injury rating with respect to stunting, chlorosis, and necrosis. The T1 generation is segregating, so some variable response is expected due to difference in zygosity.

Measured: Average % Injury of Replicates 14 DAT

CNC.O=C(O)COc1ccc(Cl)cc1Cl [2,4-D DMA]
0%: T1 1580(1)-004, 140 g ae/ha | T1 1580(1)-004, 560 g ae/ha | T1 1580(1)-004, 2240 g ae/ha | T1 1580(1)-018, 140 g ae/ha | T1 1580(1)-018, 560 g ae/ha | T1 1580(1)-018, 2240 g ae/ha
